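In this assay, cells in 96-well plates receive the compound at five concentrations for 48 hours. Endpoints are linearly interpolated between the surrounding concentrations. At the GI50, growth is halved. TGI marks complete inhibition of growth.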
Experiments:
Experiment in all cases: NCI anticancer screen, dose series, 48 h
[1] = system: 786-0 renal
[2] = system: A498 renal
[3] = system: A549 NSCLC
[4] = system: ACHN renal
[5] = system: BT-549 breast
[6] = system: CAKI-1 renal
[7] = system: CCRF-CEM leukemia
[8] = system: COLO 205 colon
[9] = system: DU-145 prostate
[10] = system: EKVX NSCLC
[11] = system: HCC-2998 colon
[12] = system: HCT-116 colon
[13] = system: HCT-15 colon
[14] = system: HL-60(TB) leukemia
[15] = system: HOP-62 NSCLC
[16] = system: HS 578T breast
[17] = system: HT29 colon
[18] = system: IGROV1 ovarian
[19] = system: K-562 leukemia
[20] = system: KM12 colon
[21] = system: LOX IMVI melanoma
[22] = system: M14 melanoma
[23] = system: MALME-3M melanoma
[24] = system: MCF7 breast
[25] = system: MDA-MB-231 breast
[26] = system: MDA-MB-435
[27] = system: MOLT-4 leukemia
[28] = system: NCI-H226 lung
[29] = system: NCI-H23 lung
[30] = system: NCI-H460 lung
[31] = system: NCI-H522 lung
[32] = system: NCI/ADR-RES ovarian
[33] = system: OVCAR-3 ovarian
[34] = system: OVCAR-4 ovarian
[35] = system: OVCAR-5 ovarian
[36] = system: OVCAR-8 ovarian
[37] = system: PC-3 prostate
[38] = system: RPMI-8226 leukemia
[39] = system: RXF 393 renal
[40] = system: SF-268 CNS
[41] = system: SF-295 CNS
[42] = system: SF-539 CNS
[43] = system: SK-MEL-2 melanoma
[44] = system: SK-MEL-28 melanoma
[45] = system: SK-MEL-5 melanoma
[46] = system: SK-OV-3 ovarian
[47] = system: SN12C renal
[48] = system: SNB-19 CNS
[49] = system: SNB-75 CNS
[50] = system: SR leukemia
[51] = system: SW-620 colon
[52] = system: T-47D breast
[53] = system: TK-10 renal
[54] = system: U251 CNS
[55] = system: UACC-257 melanoma
[56] = system: UACC-62 melanoma
[57] = system: UO-31 renal

`O=C1c2ccccc2S(=O)(=O)N1CSC(=S)N1CCOCC1` was tested, and the GI50 [1] was greater than 100 µM, the TGI [1] was greater than 100 µM and the GI50 [2] was greater than 100 µM. It also gave a TGI [2] greater than 100 µM, a GI50 [3] greater than 100 µM and a TGI [3] greater than 100 µM. The GI50 [4] was greater than 100 µM, the TGI [4] was greater than 100 µM and the GI50 [5] was greater than 100 µM. For the same compound, the TGI [5] was greater than 100 µM, the GI50 [6] was greater than 100 µM and the TGI [6] was greater than 100 µM. It also gave a GI50 [7] of 7.9 µM, a TGI [7] of 36.1 µM and a GI50 [8] of 62.4 µM. It also gave a TGI [8] greater than 100 µM, a GI50 [9] greater than 100 µM and a TGI [9] greater than 100 µM. The GI50 [10] was greater than 100 µM, the TGI [10] was greater than 100 µM and the GI50 [11] was greater than 100 µM. The TGI [11] was greater than 100 µM, the GI50 [12] was greater than 100 µM and the TGI [12] was greater than 100 µM. For the same compound, the GI50 [13] was greater than 100 µM, the TGI [13] was greater than 100 µM and the GI50 [14] was 4.84 µM. The TGI [14] was 49.9 µM, the GI50 [15] was greater than 100 µM and the TGI [15] was greater than 100 µM. It also gave a GI50 [16] greater than 100 µM, a TGI [16] greater than 100 µM and a GI50 [17] of 26.1 µM. The TGI [17] was greater than 100 µM, the GI50 [18] was greater than 100 µM and the TGI [18] was greater than 100 µM. The GI50 [19] was greater than 100 µM, the TGI [19] was greater than 100 µM and the GI50 [20] was greater than 100 µM. For the same compound, the TGI [20] was greater than 100 µM, the GI50 [21] was greater than 100 µM and the TGI [21] was greater than 100 µM. It also gave a GI50 [22] of 31.1 µM, a TGI [22] of 89.6 µM and a GI50 [23] greater than 100 µM. The TGI [23] was greater than 100 µM, the GI50 [24] was 49 µM and the TGI [24] was greater than 100 µM. The GI50 [25] was greater than 100 µM, the TGI [25] was greater than 100 µM and the GI50 [26] was greater than 100 µM. It also gave a TGI [26] greater than 100 µM, a GI50 [27] of 19 µM and a TGI [27] greater than 100 µM. The GI50 [28] was greater than 100 µM, the TGI [28] was greater than 100 µM and the GI50 [29] was greater than 100 µM. It also gave a TGI [29] greater than 100 µM, a GI50 [30] of 70.1 µM and a TGI [30] greater than 100 µM. It also gave a GI50 [31] of 24.8 µM, a TGI [31] greater than 100 µM and a GI50 [32] greater than 100 µM. The TGI [32] was greater than 100 µM, the GI50 [33] was greater than 100 µM and the TGI [33] was greater than 100 µM. The GI50 [34] was greater than 100 µM, the TGI [34] was greater than 100 µM and the GI50 [35] was greater than 100 µM. The TGI [35] was greater than 100 µM, the GI50 [36] was greater than 100 µM and the TGI [36] was greater than 100 µM. For the same compound, the GI50 [37] was 38.3 µM, the TGI [37] was greater than 100 µM and the GI50 [38] was 15.8 µM. The TGI [38] was 51.3 µM, the GI50 [39] was greater than 100 µM and the TGI [39] was greater than 100 µM. For the same compound, the GI50 [40] was greater than 100 µM, the TGI [40] was greater than 100 µM and the GI50 [41] was greater than 100 µM. The TGI [41] was greater than 100 µM, the GI50 [42] was greater than 100 µM and the TGI [42] was greater than 100 µM. It also gave a GI50 [43] greater than 100 µM, a TGI [43] greater than 100 µM and a GI50 [44] of 61.8 µM. The TGI [44] was greater than 100 µM, the GI50 [45] was 58.1 µM and the TGI [45] was greater than 100 µM. The GI50 [46] was greater than 100 µM, the TGI [46] was greater than 100 µM and the GI50 [47] was greater than 100 µM. For the same compound, the TGI [47] was greater than 100 µM, the GI50 [48] was greater than 100 µM and the TGI [48] was greater than 100 µM. It also gave a GI50 [49] of 65.4 µM, a TGI [49] greater than 100 µM and a GI50 [50] of 17.4 µM. It also gave a TGI [50] of 47 µM, a GI50 [51] of 69.1 µM and a TGI [51] greater than 100 µM. The GI50 [52] was greater than 100 µM, the TGI [52] was greater than 100 µM and the GI50 [53] was greater than 100 µM. It also gave a TGI [53] greater than 100 µM, a GI50 [54] greater than 100 µM and a TGI [54] greater than 100 µM. It also gave a GI50 [55] greater than 100 µM, a TGI [55] greater than 100 µM and a GI50 [56] greater than 100 µM. The TGI [56] was greater than 100 µM, the GI50 [57] was greater than 100 µM and the TGI [57] was greater than 100 µM.

Reference: PubChem BioAssay (NCI)
